# Biological target: T1, c-kit (Homo sapiens, UniProt P10721)
# T1 construct: MO7e (human megakaryocytic leukemia cell line) which had been arrested for 20 hr; endogenous in cells; host or cells: MO7e human megakaryocytic leukemia cell line
# Test: Inhibitory activity against c-kit autophosphorylation (MO7e cells, h-SCF)
# Assay type: cell-based
# Details: MO7e cells, 50 ng/ml h-SCF; read-out: c-kit IC50
# Method: Inhibitory Activity Against c-kit Autophosphorylation
# MO7e (human megakaryocytic leukemia cell line) which had been arrested for 20 hr was seeded into 96 well plates at an amount of 2×10^5 per well. A solution of a test compound in DMSO was added, and a reaction was then allowed to proceed for one hr. Thereafter, the cells were stimulated by 50 ng/ml of h-SCF for 5 min, followed by replacement with lysate buffer to solubilize the cells.
# Next, the solubilized cell sap was transferred to a 96-well plate with an anti-phosphotyrosine antibody (PY-20) previously immobilized thereon, and a reaction was allowed to proceed. Thereafter, the cells were reacted with an anti-c-kit antibody (c-19, Santa Cruz) as a primary antibody and were labelled with GAR (anti-rabbit IgG, horseradish peroxidase, Amersham) as a secondary antibody. Color development was then carried out in a peroxidase color development kit (Sumitomo Bakelite Co., Ltd.), and the absorbance was measured at a wavelength of 450 nm.
# T1 sequence (P10721 26-976): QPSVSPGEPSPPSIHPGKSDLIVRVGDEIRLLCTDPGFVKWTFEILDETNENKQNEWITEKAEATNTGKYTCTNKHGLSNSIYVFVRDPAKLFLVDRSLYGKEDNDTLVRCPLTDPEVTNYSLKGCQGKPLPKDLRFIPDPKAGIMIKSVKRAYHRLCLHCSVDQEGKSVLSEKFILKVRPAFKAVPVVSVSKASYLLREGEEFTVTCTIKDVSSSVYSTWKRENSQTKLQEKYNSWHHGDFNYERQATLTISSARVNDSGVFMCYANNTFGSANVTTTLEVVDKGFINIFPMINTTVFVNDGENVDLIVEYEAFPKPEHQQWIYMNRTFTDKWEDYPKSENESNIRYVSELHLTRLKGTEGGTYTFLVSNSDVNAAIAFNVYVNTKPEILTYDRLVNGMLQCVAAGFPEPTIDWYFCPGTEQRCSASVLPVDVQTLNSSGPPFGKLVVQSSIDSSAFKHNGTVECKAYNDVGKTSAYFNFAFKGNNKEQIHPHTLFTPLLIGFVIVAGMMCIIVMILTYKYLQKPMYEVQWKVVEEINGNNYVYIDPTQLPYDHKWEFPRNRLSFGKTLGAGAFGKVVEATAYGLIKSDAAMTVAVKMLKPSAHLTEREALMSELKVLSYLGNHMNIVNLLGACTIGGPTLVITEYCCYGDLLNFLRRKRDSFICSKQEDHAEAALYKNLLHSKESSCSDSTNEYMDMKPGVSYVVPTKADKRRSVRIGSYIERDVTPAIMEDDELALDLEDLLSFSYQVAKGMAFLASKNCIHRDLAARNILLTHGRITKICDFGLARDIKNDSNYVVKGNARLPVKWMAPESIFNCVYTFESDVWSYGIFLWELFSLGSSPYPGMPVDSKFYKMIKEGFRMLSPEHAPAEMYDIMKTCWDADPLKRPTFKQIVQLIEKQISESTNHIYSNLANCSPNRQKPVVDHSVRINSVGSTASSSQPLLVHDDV
row,SMILES,IC50
1,"COc1cc2nccc(Oc3ccc(NC(=O)NNc4ccccc4)c(F)c3)c2cc1OC [Example 612, N-{4-[(6,7-Dimethoxy-4-quinolyl)oxy]-2-fluorophenyl}-N′-(phenylamino)urea]",173 nM
2,"COc1cc2nccc(Oc3ccc(OCCNc4cccc(C)c4)cc3)c2cc1OC [Example 785, N-(2-{4-[(6,7-Dimethoxy-4-quinolyl)oxy]phenoxy}ethyl)-N-(3-methylphenyl)amine]",71 nM
3,"COc1ccccc1NC(=O)COc1ccc(Oc2ccnc3cc(OC)c(OC)cc23)cc1 [Example 776, N1-(2-Methoxyphenyl)-2-{4-[(6,7-dimethoxy-4-quinolyl)oxy]phenoxy}acetamide]",386 nM

# Same assay, conditions: MO7e cells, h-SCF 50 ng/ml; read-out: c-kit IC50
row,SMILES,IC50
1,"COc1cc2nccc(Oc3cc(C)c(NC(=O)OCc4ccccc4)cc3C)c2cc1OC [Example 218, Benzyl N-{4-[(6,7-dimethoxy-4-quinolyl)oxy]-2,5-dimethylphenyl}carbamate]",123 nM
2,"COc1cc2nccc(Oc3ccc(NC(=O)SCc4ccc(C)cc4)c(C)c3C)c2cc1OC [Example 108, 4-Methylbenzyl {4-[(6,7-dimethoxy-4-quinolyl)oxy]-2,3-dimethylanilino}methanethioate]",180 nM

# Same assay, conditions: MO7e cells, h-SCF stimulation; read-out: c-kit IC50
row,SMILES,IC50
1,"COc1cc2nccc(Oc3ccc(NC(=S)NC(=O)c4ccco4)cc3)c2cc1OC [Example 1033, N-{4-[(6,7-Dimethoxy-4-quinolyl)oxy]phenyl}-N′-(2-furylcarbonyl)thiourea]",177 nM
2,"COc1cc2nccc(Oc3ccc(NC(=S)NC(=O)c4cccc(C(F)(F)F)c4)cc3)c2cc1OC [Example 934, N-{4-[(6,7-Dimethoxy-4-quinolyl)oxy]phenyl}-N′-[3-(trifluoromethyl)benzoyl]thiourea]",143 nM
3,"COc1cc2nccc(Oc3ccc(SCCOc4ccc(C)c(C)c4)cc3)c2cc1OC [Example 827, 4-(4-{[2-(3,4-Dimethylphenoxy)ethyl]sulfanyl}phenoxy)-6,7-dimethoxyquinoline]",175 nM
4,"COc1cc2nccc(Oc3ccc(NC(=S)NC(=O)c4ccccc4Br)c(F)c3)c2cc1OC [Example 907, N-(2-Bromobenzoyl)-N′-{4-[(6,7-dimethoxy-4-quinolyl)oxy]-2-fluorophenyl}thiourea]",572 nM
5,"COc1cc2nccc(Oc3ccc(NC(=S)NC(=O)C4CC4)cc3F)c2cc1OC [Example 1056, N-Cyclopropylcarbonyl-N′-{4-[(6,7-dimethoxy-4-quinolyl)oxy]-3-fluorophenyl}thiourea]",932 nM
6,"COc1cc2nccc(Oc3ccc(NC(=S)NC(=O)c4ccccc4Cl)cc3)c2cc1OC [Example 898, N-(2-Chlorobenzoyl)-N′-{4-[(6,7-dimethoxy-4-quinolyl)oxy]phenyl}thiourea]",637 nM
7,"COc1cccc(C(=O)NC(=S)Nc2ccc(Oc3ccnc4cc(OC)c(OC)cc34)c(Cl)c2)c1 [Example 950, N-{3-Chloro-4-[(6,7-dimethoxy-4-quinolyl)oxy]phenyl}-N′-(3-methoxybenzoyl)thiourea]",224 nM
8,"COc1cc2nccc(Oc3ccc(NC(=S)NC(=O)c4cccc(C)c4)cc3Cl)c2cc1OC [Example 947, N-{3-Chloro-4-[(67-dimethoxy-4-quinolyl)oxy]phenyl}-N′-(3-methylbenzoyl)thiourea]",375 nM
9,"COc1cc2ncnc(Oc3ccc(NC(=S)NC(=O)c4ccccc4Cl)cc3Cl)c2cc1OC [Example 920, N-(2-Chlorobenzoyl)-N′-{3-chloro-4-[(6,7-dimethoxy-4-quinazolinyl)oxy]phenyl}thiourea]",448 nM
10,"COc1cc2nccc(Oc3ccc(SCCOc4cccc(Cl)c4)cc3)c2cc1OC [Example 820, 4-(4-{[2-(3-Chlorophenoxy)ethyl]sufanyl}phenoxy)-6,7-dimethoxyquinoline]",187 nM
11,"COc1cc2nccc(Oc3ccc(NC(=S)NC(=O)c4ccc(Cl)cc4Cl)cc3)c2cc1OC [Example 1008, N-(2,4-Dichlorobenzoyl)-N′-{4-[(6,7-dimethoxy-4-quinolyl)oxy]phenyl}thiourea]",357 nM
12,"COc1cc2nccc(Oc3ccc(NC(=S)NC(=O)c4ccc(Br)cc4)cc3Cl)c2cc1OC [Example 980, N-(4-Bromobenzoyl)-N′-{3-chloro-4-[(6,7-dimethoxy-4-quinolyl)oxy]phenyl}thiourea]",811 nM
13,"COc1cc2nccc(Oc3ccc(NCCOc4ccccc4Cl)cc3)c2cc1OC [Example 868, N-[2-(2-Chlorophenoxy)ethyl]-N-{4-[(6,7-dimethoxy-4-quinolyl)oxy]phenyl}amine]",70 nM
14,"CCOc1ccc(C(=O)NC(=S)Nc2ccc(Oc3ccnc4cc(OC)c(OC)cc34)c(F)c2)cc1 [Example 990, N-{4-[(6,7-Dimethoxy-4-quinolyl)oxy]-3-fluorophenyl}-N′-(4-ethoxybenzoyl)thiourea]",481 nM
15,"COc1ccc(C(=O)NC(=S)Nc2ccc(Oc3ccnc4cc(OC)c(OC)cc34)c(F)c2)cc1OC [Example 1070, N-(3,4-Dimethoxybenzoyl)-N′-{4-[(6,7-dimethoxy-4-quinolyl)oxy]-3-fluorophenyl}thiourea]",391 nM
16,"COc1ccc(C(=O)NC(=S)Nc2ccc(Oc3ccnc4cc(OC)c(OC)cc34)c(F)c2)c(OC)c1 [Example 1113, N-(2,4-Dimethoxybenzoyl)-N′-{4-[(6,7-dimethoxy-4-quinolyl)oxy]-3-fluorophenyl}thiourea]",785 nM
17,"COc1cc2nccc(Oc3ccc(NC(=S)NC(=O)c4ccccc4)cc3)c2cc1OC [Example 897, N-Benzoyl-N′-{4-[(6,7-dimethoxy-4-quinolyl)oxy]phenyl}thiourea]",938 nM

# Same assay, conditions: Mo7e, figure in parentheses in −( ); at 1000 nM
row,SMILES,inhibition at 1 µM
1,"COc1cc2ncnc(Oc3ccc(NC(=S)NC(=O)c4ccc([N+](=O)[O-])cc4)cc3)c2cc1OC [Example 987, N-{4-[(6,7-Dimethoxy-4-quinazolinyl)oxy]phenyl}-N′-(4-nitrobenzoyl)thiourea]",32%
2,"COc1ccc(C(=O)NC(=S)Nc2ccc(Oc3ncnc4cc(OC)c(OC)cc34)cc2)cc1 [Example 988, N-{4-[(6,7-Dimethoxy-4-quinazolinyl)oxy]phenyl}-N′-(4-methoxybenzoyl)thiourea]",33%
3,"COc1cc2nccc(Oc3ccc(NC(=S)NC(=O)N4c5ccccc5CCc5ccccc54)cc3)c2cc1OC [Example 1047, N-[10,11-Dihydro-5H-dibenzo(b,f)azepin-5-ylcarbonyl]-N′-{4-[(6,7-dimethoxy-4-quinolyl)oxy]phenyl}thiourea]",7%
4,"COc1cc2nccc(Oc3ccc(NC(=S)NC(=O)c4ccccc4Cl)c(C)c3C)c2cc1OC [Example 1078, N-(2-Chlorobenzoyl)-N′-{4-[(6,7-dimethoxy-4-quinolyl)oxy]-2,3-dimethylphenyl}thiourea]",32%
5,"COc1cc2nccc(Oc3ccc(NC(=S)NC(=O)c4ccc(Cl)cc4)c(C)c3)c2cc1OC [Example 1089, N-(4-Chlorobenzoyl)-N′-{4-[(6,7-dimethoxy-4-quinolyl)oxy]-2-methylphenyl}thiourea]",28%
6,"COc1cc2nccc(Oc3ccc(NC(=S)NC(=O)c4ccc(F)cc4)c(C)c3)c2cc1OC [Example 1093, N-{4-[(6,7-Dimethoxy-4-quinolyl)oxy]-2-methylphenyl}-N′-(4-fluorobenzoyl)thiourea]",32%
7,"COc1cc2nccc(Oc3ccc(NC(=S)NC(=O)c4cccc(Cl)c4)c(C)c3)c2cc1OC [Example 1100, N-(3-Chlorobenzoyl)-N′-{4-[(6,7-dimethoxy-4-quinolyl)oxy]-2-methylphenyl}thiourea]",18%
8,"COc1cc2nccc(Oc3ccc(NC(=S)NC(=O)c4ccccc4OC)cc3)c2cc1OC [Example 901, N-{4-[(6,7-Dimethoxy-4-quinolyl)oxy]phenyl}-N′-(2-methoxybenzoyl)thiourea]",27%
9,"COc1cc2nccc(Oc3ccc(NC(=S)NC(=O)c4ccc(C)cc4)c(C)c3C)c2cc1OC [Example 1080, N-{4-[(6,7-Dimethoxy-4-quinolyl)oxy]-2,3-dimethylphenyl}-N′-(4-methylbenzoyl)thiourea]",0%
10,"COc1cc2nccc(Oc3ccc(NC(=S)NC(=O)c4cccc(C)c4)c(C)c3C)c2cc1OC [Example 1079, N-{4-[(6,7-Dimethoxy-4-quinolyl)oxy]-2,3-dimethylphenyl}-N′-(3-methylbenzoyl)thiourea]",25%
11,"COc1ccc(C(=O)NC(=S)Nc2ccc(Oc3ccnc4cc(OC)c(OC)cc34)c(Cl)c2)c(OC)c1 [Example 1117, N-{3-Chloro-4-[(6,7-dimethoxy-4-quinolyl)oxy]phenyl}-N′-(2,4-dimethoxybenzoyl)thiourea]",31%
12,"COc1cc2nccc(Oc3ccc(NC(=S)NC(=O)c4ccccc4)c(C)c3C)c2cc1OC [Example 1084, N-Benzoyl-N′-{4-[(6,7-dimethoxy-4-quinolyl)oxy]-2,3-dimethylphenyl}thiourea]",30%

# Same assay, conditions: Mo7e, figure within parentheses in −( ) or >1000( ); at 1000 nM
row,SMILES,inhibition at 1 µM
1,"COc1cc2ncnc(Oc3ccc(OCC(=O)N4CCCCC4)cc3)c2cc1OC [Example 806, 2-{4-[(6,7-Dimethoxy-4-quinazolinyl)oxy]phenoxy}-1-piperidino-1-ethanone]",35%
2,"CCCCC(CCCC)OC(=O)Nc1ccc(Oc2ncnc3cc(OC)c(OC)cc23)cc1[N+](=O)[O-] [Example 508, 1-Butylpentyl N-{4-[(6,7-dimethoxy-4-quinazolinyl)oxy]-2-nitrophenyl}carbamate]",28%

# — patent US7135466B2 (Kirin Beer Kabushiki Kaisha, priority 1999, dated 2006)
